In patent US10219516B2, “Molecules having pesticidal utility, and intermediates, compositions, and processes, related thereto” (priority 2015, dated 2019):
Like-named read-outs stand apart in the source and are kept apart here.

Experiments:
Assay type in all cases: in vivo
[1] = test system: Beet Armyworm (Spodoptera exigua, LAPHEG); test: Bioassay on Beet Armyworm (BAW), 128-well diet tray assay
Summary of the method: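 In a 128-well format, eight wells per compound received a surface dose of 50 μg/cm^2 on artificial diet. After drying, each well got one to five second instar larvae, held at 25° C. with 14:10 photoperiod. Mortality percentages after five to seven days were averaged.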

[2] = test system: Cabbage Looper (Trichoplusia ni, TRIPNI); test: Bioassay on Cabbage Looper (CL), 128-well diet tray assay; conditions: Trichoplusia ni
Summary of the method: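 Mortality of second instar larvae exposed to diet coated with 50 μg/cm^2 compound (acetone-water 90:10 vehicle, dried); 25° C., 5–7 days.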

[3] = test system: Yellow Fever Mosquito (Aedes aegypti, AEDSAE); test: Bioassay on Yellow Fever Mosquito (YFM), 96-well plate larval assay; conditions: for YFM (Biological Results, rating): Species YFM (Yellow Fever Mosquito); for YFM rating: Yellow Fever Mosquito, 96-well plate larval assay
Protocol: Certain molecules disclosed in this document were tested against YFM using procedures described in the following paragraph. In the reporting of the results, the “GPA & YFM Rating Table” was used (See Table Section).
Master plates containing 400 μg of a molecule dissolved in 100 μL of dimethyl sulfoxide (DMSO) (equivalent to a 4000 ppm solution) are used. A master plate of assembled molecules contains 15 μL per well. To this plate, 135 μL of a 90:10 water/acetone mixture is added to each well. A robot is programmed to dispense 15 μL aspirations from the master plate into an empty 96-well shallow plate (“daughter” plate). There are 6 reps (“daughter” plates) created per master. The created “daughter” plates are then immediately infested with YFM larvae.
The day before plates are to be treated, mosquito eggs are placed in Millipore water containing liver powder to begin hatching (4 g. into 400 mL). After the “daughter” plates are created using the robot, they are infested with 220 μL of the liver powder/larval mosquito mixture (about 1 day-old larvae). After plates are infested with mosquito larvae, a non-evaporative lid is used to cover the plate to reduce drying. Plates are held at room temperature for 3 days prior to grading. After 3 days, each well is observed and scored based on mortality. The results are indicated in the table entitled “Table ABC: Biological Results” (See Table Section).

[4] = Species BAW (Beet Armyworm), read-out: BAW (Biological Results, rating)
[5] = Species CL (Cabbage Looper), read-out: CL (Biological Results, rating)
[6] = Beet Armyworm, 128-well diet tray assay, read-out: BAW rating
[7] = Cabbage Looper, 128-well diet tray assay, read-out: CL rating

Compound	YFM (Biological Results, rating) [3]	pest or weed control at 50 µg/cm2 [1, 6]	pest or weed control at 50 µg/cm2 [2, 7]	also measured
O=C(Nc1ccc(F)cc1)c1cc(NC(=O)[C@H]2[C@H](c3cc(Cl)cc(Cl)c3)C2(Cl)Cl)ccc1C(F)(F)F (relative stereo) [F3, trans-5-(2,2-Dichloro-3-(3,5-dichlorophenyl)cyclopropane-1-carboxamido)-N-(4-fluorophenyl)-2-(trifluoromethyl)benzamide]	A (80-100)	–	–	pest or weed control at 50 µg/cm2 [1, 4]: 50 to 100%; pest or weed control at 50 µg/cm2 [2, 5]: 50 to 100%
O=C(Nc1ccc(F)cc1)c1cc(NC(=O)[C@H]2[C@H](c3cc(Cl)cc(Cl)c3)C2(Cl)Cl)ccc1I (relative stereo) [F4, trans-5-(2,2-Dichloro-3-(3,5-dichlorophenyl)cyclopropane-1-carboxamido)-N-(4-fluorophenyl)-2-iodobenzamide]	A (80-100)	–	–	pest or weed control at 50 µg/cm2 [1, 4]: 50 to 100%; pest or weed control at 50 µg/cm2 [2, 5]: 50 to 100%
O=C(Nc1ccc(F)cc1)c1cc(NC(=O)[C@H]2[C@H](c3cc(Cl)cc(Cl)c3)C2(Cl)Cl)ccc1-n1cncn1 (relative stereo) [F12, trans-5-(2,2-Dichloro-3-(3,5-dichlorophenyl)cyclopropane-1-carboxamido)-N-(4-fluorophenyl)-2-(1H-1,2,4-triazol-1-yl)benzamide]	A (80-100)	–	–	pest or weed control at 50 µg/cm2 [1, 4]: 50 to 100%; pest or weed control at 50 µg/cm2 [2, 5]: 50 to 100%
O=C(Nc1ccc(F)cc1)c1cc(NC(=O)[C@H]2[C@H](c3cc(Cl)cc(Cl)c3)C2(Cl)Cl)c(Cl)cc1Cl (relative stereo) [F250, trans-2,4-Dichloro-5-(2,2-dichloro-3-(3,5-dichlorophenyl)cyclopropane-1-carboxamido)-N-(4-fluorophenyl)benzamide]	B (More than 0-Less than 80)	–	–	pest or weed control at 50 µg/cm2 [1, 4]: 0 to 50%
O=C(Nc1ccccc1)c1cc(NC(=O)[C@H]2[C@H](c3cc(Cl)cc(Cl)c3)C2(Cl)Cl)c(Cl)cc1Cl (relative stereo) [F254, trans-2,4-Dichloro-5-(2,2-dichloro-3-(3,5-dichlorophenyl)cyclopropane-1-carboxamido)-N-phenylbenzamide]	A (80-100)	–	–	–
O=C(Nc1ccc(Cl)nn1)c1cc(NC(=O)[C@H]2[C@H](c3cc(Cl)cc(Cl)c3)C2(Cl)Cl)ccc1Cl (relative stereo) [PF148, trans-2-Chloro-N-(6-chloropyridazin-3-yl)-5-(2,2-dichloro-3-(3,5-dichlorophenyl)cyclopropane-1-carboxamido)benzamide]	–	–	–	YFM rating [3]: A (80-100)
O=C(Nc1ncc(F)cc1F)c1cc(NC(=O)[C@H]2[C@H](c3cc(Cl)cc(Cl)c3)C2(Cl)Cl)ccc1Cl [F309, 2-Chloro-5-((1R,3R)-2,2-dichloro-3-(3,5-dichlorophenyl)cyclopropane-1-carboxamido)-N-(3,5-difluoropyridin-2-yl)benzamide]	A (80-100)	–	–	–
O=C(Nc1cc(F)cc([N+](=O)[O-])c1)c1cc(NC(=O)[C@H]2[C@H](c3cc(Cl)cc(Cl)c3)C2(Cl)Cl)ccc1Cl [F415, 2-Chloro-5-((1R,3R)-2,2-dichloro-3-(3,5-dichlorophenyl)cyclopropane-1-carboxamido)-N-(3-fluoro-5-nitrophenyl)benzamide]	–	–	–	YFM rating [3]: A (80-100)
O=C(Nc1ccc(F)cc1F)c1cc(NC(=O)C2C(c3cc(F)c(F)c(F)c3)C2(Cl)Cl)ccc1Cl (stereo not drawn) [F582, 2-Chloro-5-cis-(2,2-dichloro-3-(3,4,5-trifluorophenyl)cyclopropane-1-carboxamido)-N-(2,4-difluorophenyl)benzamide]	–	–	–	YFM rating [3]: A (80-100)
Nc1c(F)ccc(NC(=O)c2cc(NC(=O)C3C(c4cc(Cl)c(Cl)c(Br)c4)C3(Cl)Cl)ccc2Cl)c1F (stereo not drawn) [F621, N-(3-Amino-2,4-difluorophenyl)-5-(3-trans-(3-bromo-4,5-dichlorophenyl)-2,2-dichlorocyclopropane-1-carboxamido)-2-chlorobenzamide]	–	50 to 100%	50 to 100%	–
Nc1c(F)ccc(NC(=O)c2cc(NC(=O)C3C(c4cc(F)cc(Br)c4)C3(Cl)Cl)ccc2Cl)c1F (stereo not drawn) [F622, N-(3-Amino-2,4-difluorophenyl)-5-(3-trans-(3-bromo-5-fluorophenyl)-2,2-dichlorocyclopropane-1-carboxamido)-2-chlorobenzamide]	–	50 to 100%	50 to 100%	–
Nc1c(F)ccc(NC(=O)c2cc(NC(=O)C3C(c4cc(F)cc(C(F)(F)F)c4)C3(Cl)Cl)ccc2Cl)c1F (stereo not drawn) [F623, N-(3-Amino-2,4-difluorophenyl)-2-chloro-5-(2,2-dichloro-3-trans-(3-fluoro-5-(trifluoromethyl)phenyl)cyclopropane-1-carboxamido)benzamide]	–	50 to 100%	50 to 100%	–
Nc1c(F)ccc(NC(=O)c2cc(NC(=O)C3C(c4ccc(F)c(C(F)(F)F)c4)C3(Cl)Cl)ccc2Cl)c1F (stereo not drawn) [F624, N-(3-Amino-2,4-difluorophenyl)-2-chloro-5-(2,2-dichloro-3-trans-(4-fluoro-3-(trifluoromethyl)phenyl)cyclopropane-1-carboxamido)benzamide]	–	50 to 100%	50 to 100%	–
Nc1c(F)ccc(NC(=O)c2cc(NC(=O)C3C(c4ccc(F)c(Br)c4)C3(Cl)Cl)ccc2Cl)c1F (stereo not drawn) [F625, N-(3-Amino-2,4-difluorophenyl)-5-(3-trans-(3-bromo-4-fluorophenyl)-2,2-dichlorocyclopropane-1-carboxamido)-2-chlorobenzamide]	–	50 to 100%	50 to 100%	–
Nc1c(F)ccc(NC(=O)c2cc(NC(=O)C3C(c4c(F)c(F)c(F)c(F)c4F)C3(Cl)Cl)ccc2Cl)c1F (stereo not drawn) [F626, N-(3-Amino-2,4-difluorophenyl)-2-chloro-5-(2,2-dichloro-3-trans-(perfluorophenyl)cyclopropane-1-carboxamido)benzamide]	–	50 to 100%	50 to 100%	–
Nc1c(F)ccc(NC(=O)c2cc(NC(=O)C3C(c4cc(F)c(F)c(F)c4)C3(Cl)Cl)ccc2Cl)c1F (stereo not drawn) [F627, N-(3-Amino-2,4-difluorophenyl)-2-chloro-5-(2,2-dichloro-3-trans-(3,4,5-trifluorophenyl)cyclopropane-1-carboxamido)benzamide]	–	50 to 100%	50 to 100%	–
O=C(Nc1ccc(F)cc1)c1cc(NC(=O)C2C(c3cc(Cl)cc(Cl)c3)C2(Cl)Cl)ccc1Cl (stereo not drawn) [F629, 2-Chloro-5-(2,2-dichloro-3-cis-(3,5-dichlorophenyl)cyclopropane-1-carboxamido)-N-(4-fluorophenyl)benzamide]	–	50 to 100%	50 to 100%	–
O=C(Nc1ccc(F)cc1)c1cc(NC(=O)C2C(c3cc(Cl)cc(Cl)c3)C2(Cl)Br)ccc1Cl (stereo not drawn) [PF33, 5-(trans)-2-Bromo-2-chloro-3-(3,5-dichlorophenyl)cyclopropane-1-carboxamido)-2-chloro-N-(4-fluorophenyl)benzamide]	–	50 to 100%	50 to 100%	–
N#Cc1ccc(NC(=O)c2cc(NC(=O)C3C(c4cc(Cl)cc(Cl)c4)C3(Cl)Cl)ccc2Cl)cc1Cl (stereo not drawn) [PF120, 2-Chloro-N-(3-chloro-4-cyanophenyl)-5-(trans)-2,2-dichloro-3-(3,5-dichlorophenyl)cyclopropane-1-carboxamido)benzamide]	–	–	–	YFM rating [3]: A (80-100)
